Where two headings read alike, the source gives them in different places.
Tests used:
[1] = tested on: HindIII-digested lambda DNA; assay: Prestaining of DNA during electrophoresis (Example 3)
Description: The ability of another of the new unsymmetrical monomethincyanine dyes, i.e., compound 7 (SL-2833), to stain DNA during electrophoresis (i.e., “prestain”) was compared to that of ethidium bromide (EtBr). For this, 1 μM of 7 (SL-2833) or EtBr was added to the heated agarose before the gel was poured. The gels were loaded with 200 ng/lane and 20 ng/lane of HindIII-digested lambda DNA (Cat. No. D9780; Sigma-Aldrich) and run at 90 V for about 90 min. After electrophoresis, the gels were imaged as described above in Example 2.

[2] = tested on: HindIII-digested lambda DNA; assay: DNA gel staining, comparison of compounds 7 and 8 (Example 4); conditions: 200 and 20 ng/lane DNA
Description: The brightness, sensitivity, and spectral properties of two of the new unsymmetrical monomethincyanine dyes, compound 7 (SL-2833) and compound 8 (SL-2834), were compared by staining gels containing 200 ng/lane and 20 ng/lane of HindIII-digested lambda DNA. The gels were processed and imaged as described above in Example 2.

PstI-digested lambda DNA = assay: Post electrophoretic staining of DNA in agarose gels (Example 2); conditions: for detection of stained DNA at longer wavelengths: laser scanner, 532/580 filter set
Description: The absorption and emission spectra of the unsymmetrical monomethincyanine dyes of the invention are shifted to longer wavelengths relative to those of commonly used nucleic acid stains. […] Invitrogen Corp.) and imaged using different detection devices. PstI-digested lambda DNA (Cat. No. D1793; Sigma-Aldrich, St. Louis, Mo.) was resolved on agarose gels in the presence of TBE buffer, pH 8.3. Lanes were loaded with a total of either 500 ng or 100 ng of DNA (the loading buffer contained 0.05% bromophenol blue (w/v), 40% sucrose (w/v), 0.5% SDS (w/v), and 0.1 M EDTA, pH 8). The gels were run at 90 V for about 90 min. After electrophoresis, the gels were submerged in a solution of TBE buffer comprising 2 μM of 6 (SL-2791) or SG1 for 1 hr. After a quick rinse, the gels were imaged with 1) a 300 nm UV transilluminator (Cat. No. T2202; Sigma-Aldrich) or a 450 nm (blue light) transilluminator (Dark Reader™; Clare Chemical Research, Denver, Colo.) and a CCD camera imaging system (Gel Logic 100; Kodak Imaging, Rochester, N.Y.) equipped with a 535 nm or a 590 nm emission filter and 2) a laser scanner fluorescent image analyzer system (FLA-300; Fujifilm, Japan) equipped with excitation/emission filter sets of 473/520 nm or 532/580 nm.

[3] = tested on: HindIII-digested lambda DNA; assay: Determination of the lower limit of detection (Example 6); conditions: 300 nm UV transilluminator, CCD camera, 590 nm emission filter
Description: HindIII-digested lambda DNA (200 ng/lane and 20 ng/lane) was resolved on agarose gels, as described above. EtBr was added to one gel such that the DNA was stained during electrophoresis; the other gels were stained with compound 6 (SL-2791), 7 (SL-2833), 8 (SL-2834), 9 (SL-2845), or SG1 after electrophoresis. Gels were imaged using a 300 nm UV transilluminator and a CCD camera with a 590 nm emission filter.

DNA polymerase [4] = conditions: high concentrations (>0.5 μM); cited from earlier work
DNA polymerase [5] = assay: Inhibition of DNA polymerase activity in qPCR; format: biochemical; conditions: concentrations greater than 0.5 μM
dsDNA = assay: Binding specificity and fluorescence with dsDNA versus ssDNA
[6] = tested on: human alu-consnesus sequence; assay: Real-time qPCR (Example 9); format: biochemical
Description: PCR was performed on human genomic DNA obtained from 0.16 million human peripheral blood leukocytes by direct lysis in a volume of 1 ml as described by Christopherson et al, PCR-Based Assay To Quantify Human Immunodeficiency Virus Type 1 DNA In Peripheral Blood Mononuclear Cells, 2000, J Clin Microbiol., pp. 630-634, Vol. 38. […] Additionally, a non-template control containing deionised water as sample was used. Two μl per sample were then used for real-time PCR as follows: PCR reactions were run in JumpStart™ ReadyMix™ (Sigma Aldrich, order number p2893), containing salt, buffer, Taq-DNA polymerase and deoxynucleotidetriphosphates in a final volume of 32 μl. PCR primers were added to a final concentration of 1 μM. To obtain optimal performance in real time PCR, the PCR mix was supplemented with additional MgCL2 to a final concentration of 3 mM. The DNA binding dye Nancy-520 was added to a final concentration of 200 nM. PCR primers mf39 (5′-[…]-3′) and mf40 (5′-[…]-3′) were used at a final concentration of 1 μM. These primers amplify a 133 base pair fragment of the human alu-consnesus sequence (see Clayerie et al, Alu alert, 1994, Nature, pp. 752, Vol. 371.) (available from the Genbank database: http://www.ncbi.nlm.nih.gov/Genbank/, entry nr: HSU14574). Because these repetitive sequences are highly abundant in the human genome, the PCR for alu sequences can be used to detect minute amounts of human DNA.
Real-time PCR was performed in a real-time PCR thermocycler (IQ-5, Biorad, Basel Switzerland) using the following cycling profile: Initial denaturation 94° C. 20 sec, followed for 40 cycles (94° C. 5 sec, 60° C. 5 sec, 72° C. 20 sec, 60° C. 60 sec with real-time monitoring). After cycling a melting curve analysis ranging from 55° C.-92° C. was performed with temperature increments of 0.5° C. and measurement intervals of 30 sec. Five different optical filter-sets were used for real-time PCR monitoring and melting-curve analysis according to the suppliers instructions (see table 1).
Data (FIG. 9A, 9C, 9D) were analyzed using the IQ5 software (version 2.0) or by linear regression analysis (FIG. 9B) using the statistical software GraphPad Prism version 5.01 (GraphPad Software, Inc., La Jolla, Calif.)
The first number, 485, indicates the center of the wavelength of light. The second number, 20 indicates the total breadth of wavelengths of light that can pass through it.

[7] = tested on: HindIII-digested lambda DNA and 0.2-10 kb RNA markers; assay: Staining of DNA and RNA in gels (Example 5); conditions: 200 ng/lane DNA, 1 μg/lane RNA; laser scanner 532/580 nm
Description: Gels were loaded with 200 ng/lane of HindIII-digested lambda DNA and 1 μg/lane of 0.2-10 kb RNA markers (Cat. No. R1386; Sigma-Aldrich). The RNA loading buffer contained 62.5% formamide (v/v), 1.14 M formaldehyde, 0.2 mg/ml bromophenol blue, 0.2 mg/ml xylene cyanol, and 1.25×MOPS-EDTA-sodium acetate buffer. After electrophoresis the gels were stained with compound 9 (SL-2845), SG1, or the RNA-specific stain SYBR® Green 2 (SG2; Invitrogen) and imaged as described above in Example 2.

[8] = tested on: HindIII-digested lambda DNA; assay: Digestion of stained DNA (Example 7); format: biochemical; conditions: 6557 bp band eluted from gel, restriction enzyme
Description: To determine whether the binding between DNA and an unsymmetrical monomethincyanine dye was strong enough to inhibit the digestion of the DNA, HindIII-digested lambda DNA (1 μg/lane) was resolved on an agarose gel (0.8%), as described above. The DNA was stained either during or after electrophoresis. The band-of-interest (e.g., the 6557 bp band) was excised from the gel using a blue light transilluminator [see FIG. 6A, the DNA was stained with 6 (SL-2791)]. DNA was eluted from the piece of agarose using a spin column (GenElute Agarose Spin Column, Cat. No. 5-6500; Sigma-Aldrich). The collected DNA was digested with an appropriate restriction enzyme, and the reaction products were analyzed on a new agarose gel (1.2%) using compound 9 (SL-2845). The left lane of FIG. 6B presents the undigested DNA and the right lane of FIG. 6B presents the digested products.

[9] = 1 μM in gel, UV transilluminator

With Cc1ccc2c(c1)/C(=C/c1sc3ccccc3[n+]1CCCO)C=C(c1ccccc1)N2C [Compound 7] the “background fluorescence at top of gels compared with EtBr” value [1, 9] was “lower background fluorescence”, the “fluorescence of stained DNA bands compared with EtBr” value [1, 9] was “increased fluorescence” and the “imaging of stained DNA at longer wavelengths” value ([1]; laser scanner 473/520 and 532/580 nm filter sets, low levels of DNA = 20 ng/lane) was “readily imaged”. For the same molecule, the “detection using the laser-based long wavelength imaging system” value [2] was “clearly detected” and the “fluorescence with blue light transilluminator and 590 nm filter as compared to UV transilluminator” value [2] was “reduced fluorescence”.
With Cc1ccc2c(c1)/C(=C/c1sc3ccccc3[n+]1CCO)C=C(c1ccccc1)N2C [Compound 8] the “detection using the laser-based long wavelength imaging system” value [2] was “clearly detected” and the “fluorescence with blue light transilluminator and 590 nm filter as compared to UV transilluminator” value [2] was “reduced fluorescence”.
For CCCN(CCCN(C)C)c1cc(/C=C2/Sc3ccccc3N2C)c2ccccc2[n+]1-c1ccccc1 [SG1], the “detection of stained DNA at longer wavelengths” value (shortened to “detection of stained DNA”) (PstI-digested lambda DNA) was “not visible”, the “detection of stained DNA” value (PstI-digested lambda DNA; listed as SYBR® Green 1) was “not detected” and the “lower limit of detection, DNA per lane” value [3] was “less than 1 ng”. The “inhibition of DNA polymerase activity” value (DNA polymerase [4]) was “inhibit DNA polymerase activity”.
For CN1C(c2ccccc2)=C/C(=C\c2sc3ccccc3[n+]2CCCCO)c2ccccc21 [Compound 9], the “inhibition of DNA polymerase activity” value (DNA polymerase [5]) was “does not inhibit DNA polymerase activity”, the “binding specificity for dsDNA” value (dsDNA) was “high binding specificity” and the “fluorescence in the presence of dsDNA” value (dsDNA) was “strong fluorescence signal”. The “fluorescence in the presence of ssDNA or in the absence of nucleic acids” value (dsDNA) was “only weak fluorescence”, the “robustness in DNA melt curve analysis” value ([6]; 55° C.-92° C. following PCR cycling) was “sufficiently robust” and the thermostability ([6]; PCR temperature cycles) was “high thermostability”. For the same molecule, the “Performance of PCR in measuring Nancy-520 fluorescence” value (from here on “Performance of PCR”) ([6]; filter-set CY3, 545/30X 585/20M) was “Filter set unsuitable (data not shown)”, the “Performance of PCR” value ([6]; filter-set CY5, 630/30X 685/30M) was “Filter set unsuitable (data not shown)” and the “Performance of PCR” value ([6]; filter-set FAM, 485/20X 530/30M) was “Weak”. For the same molecule, the “Performance of PCR” value ([6]; filter-set TXR, 575/30X 625/30M) was “Strong amplification signals (virtually”, the “PCR signal amplitudes at lower dye concentrations” value ([6]; lower concentrations than 2000 nm, data not shown) was “Suitable although slightly reduced signal amplitudes” and the “staining intensity of DNA versus RNA” value [7] was “stained DNA more intensely than RNA”.
With CN1C(c2ccccc2)=C/C(=C\c2sc3ccccc3[n+]2CCCO)c2ccccc21 [Compound 6, 1-Methyl-4-[(2,3-dihydro-3-(3-hydroxypropyl)benzo-1,3-thiazol-2-yl)-methyliden]-2-phenyl-quinolinium perchlorate] the “brightness of stained DNA bands compared with SG1” value (PstI-digested lambda DNA; 2 μM stain in TBE for 1 hr, under each detection condition) was “much brighter”, the “detection of stained DNA” value (PstI-digested lambda DNA) was “could be detected at longer wavelengths” and the “enzymatic digestion of stained DNA” value [8] was “may be enzymatically digested”.

Source: patent publication US20100041045A1, “NUCLEIC ACID FLUORESCENT STAINS” (SIGMA-ALDRICH CO., priority 2007, published 2010)
